From ChEMBL document CHEMBL1201862, “PubChem BioAssay data set” (2004)
The source made the active and inactive calls.

Tests used:
[1] = biological target: T1, RNA-binding protein pos-1 (Caenorhabditis elegans, UniProt G5EF15); experiment: disruptors of C. elegans POS-1 RNA interaction – biochemical, fluorescence polarization, dose response (AID 1964);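 further: purified POS-1 fused to maltose binding protein made in E. coli; potency of compounds blocking POS-1 binding to fluorescent RNA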
T1 sequence (G5EF15 whole entry): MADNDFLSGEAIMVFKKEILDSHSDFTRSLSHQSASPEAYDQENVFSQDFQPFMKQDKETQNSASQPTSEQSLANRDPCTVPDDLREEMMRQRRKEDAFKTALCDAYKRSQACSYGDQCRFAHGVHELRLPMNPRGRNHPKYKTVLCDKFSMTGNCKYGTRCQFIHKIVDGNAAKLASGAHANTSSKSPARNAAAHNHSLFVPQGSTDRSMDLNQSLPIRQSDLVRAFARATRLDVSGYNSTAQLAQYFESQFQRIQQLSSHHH

[2] = biological target: T2, Zinc finger protein mex-5 (Caenorhabditis elegans, UniProt Q9XUB2); experiment: potency of MEX-5 RNA-binding blockers – biochemical, C. elegans, fluorescence polarization, dose response (AID 1960)
T2 sequence (Q9XUB2 whole entry): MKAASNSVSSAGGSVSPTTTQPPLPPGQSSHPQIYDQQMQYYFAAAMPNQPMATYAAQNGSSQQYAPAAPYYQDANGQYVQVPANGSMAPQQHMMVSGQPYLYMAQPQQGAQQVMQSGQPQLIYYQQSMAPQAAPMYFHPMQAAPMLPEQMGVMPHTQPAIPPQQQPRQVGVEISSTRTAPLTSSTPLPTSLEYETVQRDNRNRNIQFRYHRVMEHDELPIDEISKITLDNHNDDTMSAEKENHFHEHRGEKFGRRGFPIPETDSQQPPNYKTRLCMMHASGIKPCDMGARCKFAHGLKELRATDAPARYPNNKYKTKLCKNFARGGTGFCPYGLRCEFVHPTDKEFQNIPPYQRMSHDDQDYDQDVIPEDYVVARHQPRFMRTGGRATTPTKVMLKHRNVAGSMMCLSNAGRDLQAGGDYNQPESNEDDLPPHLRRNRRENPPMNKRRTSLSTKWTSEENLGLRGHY

cells [3] = experiment: cells
[4] = HGIII-sPLA2 enzyme inhibition potency – biochemical, QFRET, IC50, dose response (AID 743457);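 further: green fluorescence rise as the enzyme cleaves BODIPY PC-A2 in liposomes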
[5] = Luminescence Cell-Based Dose Response to Identify Activators of 5'UTR Stem-Loop Driven Prion Protein mRNA Translation in H4-C Neuroglioblastoma Cells. [Related pubchem assays: 1829 (Project Summary), 1814 (Primary HTS)]; assay type: functional
[6] = Luminescence Cell-Based Dose Response HTS to Identify Activators of Luciferase Translation or Activity in H4 […] Cells. [Related pubchem assays: 1829 (Project Summary), 1814 (Primary HTS)]; assay type: functional
H4 = experiment: Luminescence Cell-Based Dose Response HTS to Identify Activators of 5'UTR Stem-Loop Driven Prion Protein mRNA Translation in H4 Neuroglioblastoma Cells. [Related pubchem assays: 1829 (Project Summary), 1814 (Primary HTS)]; assay type: functional; conditions: Homo sapiens
[7] = Luminescence Cell-Based Dose Response to Identify Activators of Luciferase Translation or Activity in H4-C Neuroglioblastoma Cells. [Related pubchem assays: 1829 (Project Summary), 1814 (Primary HTS)]; assay type: functional
[8] = Luminescence Cell-Based Dose Confirmation to Identify Activators of 5'UTR Stem-Loop Driven Alpha-Synuclein mRNA Translation in H4 Neuroglioblastoma Cells. [Related pubchem assays: 1829 (Project Summary), 1814 (Primary HTS)]; assay type: functional
[9] = Counterscreen for […] of the human trace amine associated receptor 1 (TAAR1): Fluorescence-based cell-based high throughput dose response assay to identify nonselective Ga16 agonists.; assay type: functional
[10] = biological target: T3, Trace amine-associated receptor 1 (Homo sapiens, UniProt Q96RJ0); experiment: Fluorescence-based cell-based high throughput dose response assay to identify antagonists of the human trace amine associated receptor 1 (TAAR1).; assay type: functional
T3 sequence (Q96RJ0 whole entry): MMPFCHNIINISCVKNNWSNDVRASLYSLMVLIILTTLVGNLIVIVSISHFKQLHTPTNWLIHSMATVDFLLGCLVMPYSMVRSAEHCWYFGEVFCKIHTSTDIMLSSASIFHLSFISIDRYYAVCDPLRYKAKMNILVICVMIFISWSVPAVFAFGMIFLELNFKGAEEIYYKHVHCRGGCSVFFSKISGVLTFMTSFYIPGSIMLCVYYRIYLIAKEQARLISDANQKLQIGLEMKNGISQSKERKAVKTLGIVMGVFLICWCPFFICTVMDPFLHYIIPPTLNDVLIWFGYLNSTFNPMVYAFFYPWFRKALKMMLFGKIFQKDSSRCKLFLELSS

[11] = Counterscreen for antagonists of the human trace amine associated receptor 1 (hTAAR1): Fluorescence-based cell-based high throughput dose response assay to identify nonselective Ga16 antagonists.; assay type: functional
[12] = biological target: T3, Trace amine-associated receptor 1; experiment: Counterscreen for antagonists of the human trace amine associated receptor 1 (hTAAR1): Fluorescence-based cell-based high throughput dose response assay to identify TAAR1 Agonists.; assay type: functional
[13] = biological target: Glucose-6-phosphate 1-dehydrogenase (Homo sapiens, UniProt P11413); experiment: inhibition of Homo sapiens G6PD, dose series – biochemical, fluorescence, selectivity assay for P. falciparum G6PD inhibitor project, dose response (AID 504792); assay type: functional
[14] = biological target: 1-phosphatidylinositol 4,5-bisphosphate phosphodiesterase gamma-1 (Homo sapiens, UniProt P19174); experiment: Counterscreen for inhibitors of phospholipase C isozymes (PLC-B3): Fluorescence-based biochemical high throughput dose response assay to identify inhibitors of phospholipase C isozymes (PLC-gamma1).
Sequence of 1-phosphatidylinositol 4,5-bisphosphate phosphodiesterase gamma-1 (P19174 whole entry): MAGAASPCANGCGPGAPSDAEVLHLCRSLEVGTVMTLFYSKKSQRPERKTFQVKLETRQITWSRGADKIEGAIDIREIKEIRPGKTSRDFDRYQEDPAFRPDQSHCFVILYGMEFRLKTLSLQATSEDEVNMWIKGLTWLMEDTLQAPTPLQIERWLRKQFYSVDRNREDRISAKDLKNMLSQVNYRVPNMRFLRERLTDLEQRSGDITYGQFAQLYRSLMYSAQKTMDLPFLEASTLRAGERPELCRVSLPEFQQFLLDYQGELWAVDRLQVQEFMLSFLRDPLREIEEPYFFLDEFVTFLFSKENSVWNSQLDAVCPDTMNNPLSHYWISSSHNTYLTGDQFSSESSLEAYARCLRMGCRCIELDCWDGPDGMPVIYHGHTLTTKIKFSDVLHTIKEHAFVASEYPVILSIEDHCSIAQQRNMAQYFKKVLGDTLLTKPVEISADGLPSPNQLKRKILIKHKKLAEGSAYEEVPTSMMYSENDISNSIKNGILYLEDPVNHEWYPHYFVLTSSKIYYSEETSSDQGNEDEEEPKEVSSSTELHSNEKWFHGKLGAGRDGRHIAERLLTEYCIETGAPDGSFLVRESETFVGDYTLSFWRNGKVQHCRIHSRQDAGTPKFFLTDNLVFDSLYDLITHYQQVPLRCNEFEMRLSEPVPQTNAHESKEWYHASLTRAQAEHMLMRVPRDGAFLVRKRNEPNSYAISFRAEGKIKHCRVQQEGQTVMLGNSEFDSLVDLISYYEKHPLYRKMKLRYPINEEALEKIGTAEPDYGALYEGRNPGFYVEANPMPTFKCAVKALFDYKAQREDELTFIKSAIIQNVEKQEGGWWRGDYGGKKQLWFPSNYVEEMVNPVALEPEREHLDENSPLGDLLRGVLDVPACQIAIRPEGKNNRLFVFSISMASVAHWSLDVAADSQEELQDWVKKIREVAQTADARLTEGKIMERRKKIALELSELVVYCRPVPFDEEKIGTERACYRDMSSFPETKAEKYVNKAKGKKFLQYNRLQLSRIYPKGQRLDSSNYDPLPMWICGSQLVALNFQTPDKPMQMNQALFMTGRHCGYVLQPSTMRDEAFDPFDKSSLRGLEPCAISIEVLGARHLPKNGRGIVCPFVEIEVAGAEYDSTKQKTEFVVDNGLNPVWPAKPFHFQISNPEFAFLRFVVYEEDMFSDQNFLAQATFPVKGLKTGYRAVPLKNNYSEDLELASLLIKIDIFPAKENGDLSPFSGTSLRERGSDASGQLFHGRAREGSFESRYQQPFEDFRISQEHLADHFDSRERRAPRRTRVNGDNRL

[15] = biological target: 1-phosphatidylinositol 4,5-bisphosphate phosphodiesterase beta-3 (Homo sapiens, UniProt Q01970); experiment: Fluorescence-based biochemical high throughput dose response assay to identify inhibitors of phospholipase C isozymes (PLC-B3).
Sequence of 1-phosphatidylinositol 4,5-bisphosphate phosphodiesterase beta-3 (Q01970 whole entry, the tested form may be a part): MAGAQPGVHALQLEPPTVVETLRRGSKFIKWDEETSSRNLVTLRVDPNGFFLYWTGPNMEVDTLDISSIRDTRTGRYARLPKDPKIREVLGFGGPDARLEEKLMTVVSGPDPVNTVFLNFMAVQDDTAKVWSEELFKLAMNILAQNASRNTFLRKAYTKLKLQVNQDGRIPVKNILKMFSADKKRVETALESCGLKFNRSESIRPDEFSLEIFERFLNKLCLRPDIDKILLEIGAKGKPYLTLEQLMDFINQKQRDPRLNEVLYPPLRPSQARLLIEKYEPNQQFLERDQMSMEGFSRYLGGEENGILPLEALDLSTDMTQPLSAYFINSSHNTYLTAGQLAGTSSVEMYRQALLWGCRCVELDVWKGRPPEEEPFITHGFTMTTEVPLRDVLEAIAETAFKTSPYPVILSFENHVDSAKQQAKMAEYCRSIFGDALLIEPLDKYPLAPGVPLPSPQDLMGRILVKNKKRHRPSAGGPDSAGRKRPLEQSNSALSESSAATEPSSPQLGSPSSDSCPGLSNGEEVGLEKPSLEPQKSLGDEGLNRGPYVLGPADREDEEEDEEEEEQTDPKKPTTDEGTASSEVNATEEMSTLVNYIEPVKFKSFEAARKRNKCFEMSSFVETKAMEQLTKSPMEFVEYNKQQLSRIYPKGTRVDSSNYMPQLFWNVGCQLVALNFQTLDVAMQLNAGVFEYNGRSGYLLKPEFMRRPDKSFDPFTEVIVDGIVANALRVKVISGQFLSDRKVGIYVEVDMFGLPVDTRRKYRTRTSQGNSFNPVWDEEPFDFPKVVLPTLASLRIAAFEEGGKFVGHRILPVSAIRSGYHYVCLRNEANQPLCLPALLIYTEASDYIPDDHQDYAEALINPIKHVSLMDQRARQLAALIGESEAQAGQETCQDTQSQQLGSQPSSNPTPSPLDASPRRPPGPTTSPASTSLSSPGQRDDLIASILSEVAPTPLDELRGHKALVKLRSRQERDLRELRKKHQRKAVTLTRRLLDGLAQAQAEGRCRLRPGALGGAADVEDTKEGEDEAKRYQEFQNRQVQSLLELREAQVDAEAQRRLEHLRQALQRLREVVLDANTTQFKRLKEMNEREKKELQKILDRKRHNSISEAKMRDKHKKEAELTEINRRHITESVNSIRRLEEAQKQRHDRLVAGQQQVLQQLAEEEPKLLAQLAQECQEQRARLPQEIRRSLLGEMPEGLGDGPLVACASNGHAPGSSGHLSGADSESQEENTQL

[16] = biological target: Disintegrin and metalloproteinase domain-containing protein 17 (Homo sapiens, UniProt P78536); experiment: exosite inhibitors of ADAM17, dose response, biochemical (AID 743260)
[17] = inhibition of ADAM10 peptide cleavage – biochemical, FRET peptide substrate, recombinant human ADAM10, selectivity assay for ADAM17 exosite inhibitor project, dose response (AID 743259);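 further: ADAM10 enzyme cleaving a FRET peptide substrate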
[18] = biological target: T4, DNA repair and recombination protein RAD54-like (Homo sapiens, UniProt Q92698); experiment: RAD54 Holliday junction migration blockers – biochemical, fluorescence, cherry-picked samples, dose series, confirmation (AID 651657); assay type: functional
T4 sequence (Q92698 whole entry): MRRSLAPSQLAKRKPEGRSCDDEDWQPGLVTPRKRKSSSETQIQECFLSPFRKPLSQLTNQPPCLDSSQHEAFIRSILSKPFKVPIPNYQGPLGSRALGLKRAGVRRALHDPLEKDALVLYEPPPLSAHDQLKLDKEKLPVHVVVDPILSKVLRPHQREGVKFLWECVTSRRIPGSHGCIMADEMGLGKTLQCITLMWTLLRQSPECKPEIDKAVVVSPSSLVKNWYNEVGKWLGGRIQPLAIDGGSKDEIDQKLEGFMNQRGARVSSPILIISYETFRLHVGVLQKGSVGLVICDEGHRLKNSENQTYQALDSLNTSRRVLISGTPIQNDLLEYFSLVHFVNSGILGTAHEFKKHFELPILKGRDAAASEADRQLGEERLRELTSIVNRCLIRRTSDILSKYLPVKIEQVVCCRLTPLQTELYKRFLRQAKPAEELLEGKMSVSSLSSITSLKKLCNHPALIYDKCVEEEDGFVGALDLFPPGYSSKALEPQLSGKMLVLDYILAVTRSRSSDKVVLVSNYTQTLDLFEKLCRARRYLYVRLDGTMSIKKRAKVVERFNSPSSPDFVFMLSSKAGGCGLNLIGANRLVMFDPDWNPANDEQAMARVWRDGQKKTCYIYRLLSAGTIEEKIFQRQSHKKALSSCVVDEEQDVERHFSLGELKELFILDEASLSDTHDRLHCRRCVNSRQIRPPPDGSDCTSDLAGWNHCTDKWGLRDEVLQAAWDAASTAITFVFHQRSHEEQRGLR

cells [19] = conditions: A549
[20] = TNFa-induced NF-kB reporter signal decrease – HEK293 LMP1 reporter cells, dry powder, set 2, selectivity assay for EBV LMP1 NF-kB inhibitor project, dose response (AID 624369); assay type: functional
[21] = cytotoxicity in HEK293 background cells – cell-based, dry powder, set 2, counter-screen for EBV LMP1 inhibitor project, dose response (AID 624374); assay type: functional
[22] = inhibitors of EBV LMP1 NF-kappaB signaling – cell-based, luciferase reporter, luminescence, dry powder, set 2, dose response (AID 624376); assay type: functional
[23] = LMP1-induced NF-kB luciferase signal inhibition – cell-based, EBV LMP1, dry powder, set 2, dose response (AID 624361); assay type: functional
Paired box protein Pax-8 = Paired box protein Pax-8 (Homo sapiens, UniProt Q06710); experiment: PAX8 transcriptional activity inhibition in RMG-I – RMG-I cells, luciferase, cherry-pick, dose response (AID 687027); assay type: functional, cell-based;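 further: luciferase reporter driven by Pax8 target thyroperoxidase promoter measured by SteadyGlo luminescence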
Sequence of Paired box protein Pax-8 (Q06710 whole entry): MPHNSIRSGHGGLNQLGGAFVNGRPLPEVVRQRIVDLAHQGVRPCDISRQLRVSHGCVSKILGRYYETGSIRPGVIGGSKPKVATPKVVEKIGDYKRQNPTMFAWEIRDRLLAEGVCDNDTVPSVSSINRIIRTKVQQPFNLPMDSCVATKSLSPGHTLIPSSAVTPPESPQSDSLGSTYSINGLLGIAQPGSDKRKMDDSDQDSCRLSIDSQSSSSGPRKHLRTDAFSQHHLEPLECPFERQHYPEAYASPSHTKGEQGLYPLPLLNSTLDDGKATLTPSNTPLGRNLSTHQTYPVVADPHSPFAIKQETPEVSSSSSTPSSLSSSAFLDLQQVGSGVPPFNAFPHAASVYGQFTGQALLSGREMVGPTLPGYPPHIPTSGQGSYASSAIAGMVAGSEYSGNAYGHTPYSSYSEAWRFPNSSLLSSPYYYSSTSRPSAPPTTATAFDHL

[24] = OVCAR-3 cell viability loss – plate reader, dry powder samples, PAX8 inhibitor project, dose response (AID 743044); assay type: functional, cell-based
[25] = general cell-killing toxicity readout – plate reader, dry powder samples, cytotoxicity control for PAX8 inhibitor project, dose response (AID 743021); assay type: functional, cell-based
[26] = OVCAR8 cell viability loss – plate reader, dry powder samples, PAX8 project, dose response (AID 743197); assay type: functional, cell-based; conditions: OVCAR-8
[27] = biological target: Metabotropic glutamate receptor 3 (Rattus norvegicus, UniProt P31422); experiment: inhibitors of rat mGlu3 Galpha15 signaling – TREx293 cells, calcium flux, mGlu3 NAM project, dose response (AID 651840); assay type: functional
Sequence of Metabotropic glutamate receptor 3 (P31422 whole entry): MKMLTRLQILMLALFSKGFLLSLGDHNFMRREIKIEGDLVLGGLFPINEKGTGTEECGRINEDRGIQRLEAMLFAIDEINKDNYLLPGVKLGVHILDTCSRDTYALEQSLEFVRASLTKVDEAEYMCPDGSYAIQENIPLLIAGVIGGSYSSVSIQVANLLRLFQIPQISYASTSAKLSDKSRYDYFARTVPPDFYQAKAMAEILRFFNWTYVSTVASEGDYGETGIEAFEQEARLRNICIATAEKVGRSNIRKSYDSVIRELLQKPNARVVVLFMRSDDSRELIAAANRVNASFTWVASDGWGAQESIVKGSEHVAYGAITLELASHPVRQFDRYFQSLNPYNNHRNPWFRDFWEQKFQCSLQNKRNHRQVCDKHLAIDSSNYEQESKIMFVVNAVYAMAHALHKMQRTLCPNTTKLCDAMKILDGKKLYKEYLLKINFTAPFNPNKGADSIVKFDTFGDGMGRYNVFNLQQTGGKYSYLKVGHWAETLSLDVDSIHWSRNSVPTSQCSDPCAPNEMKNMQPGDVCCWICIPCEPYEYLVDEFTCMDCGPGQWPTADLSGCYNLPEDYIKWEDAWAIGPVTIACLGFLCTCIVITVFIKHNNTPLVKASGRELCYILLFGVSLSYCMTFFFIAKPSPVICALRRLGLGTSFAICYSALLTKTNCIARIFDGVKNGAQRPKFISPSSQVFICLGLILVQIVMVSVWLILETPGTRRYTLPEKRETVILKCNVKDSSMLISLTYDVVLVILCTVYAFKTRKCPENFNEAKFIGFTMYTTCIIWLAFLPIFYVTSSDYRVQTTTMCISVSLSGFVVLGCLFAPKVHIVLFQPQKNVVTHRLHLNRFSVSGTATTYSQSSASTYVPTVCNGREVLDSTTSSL

[28] = HepG2 cell viability loss – cherry-picked samples, cytotoxicity control, dose response (AID 1053183); assay type: functional, cell-based
[29] = P. falciparum Dd2 growth inhibitors, dose response, SYBR Green, cherry-picked samples (AID 1159567); assay type: functional, cell-based
[30] = toxicity to human hepatoma HepG2 cells – cell-based, cherry-picked samples, cytotoxicity control, dose response (AID 1159577); assay type: functional
[31] = viability loss in A549 lung cancer cells – cell-based, cherry-picks, […], cytotoxicity control, dose response (AID 1053119); assay type: functional
[32] = blockers of FN fibrillogenesis by fibroblasts – AH1F cells, Alexa488-FN fluorescence, cherry-picks, dose response (AID 1035475); assay type: functional, cell-based
[33] = viability loss in HEK293T cells – cell-based, CellTiter-Glo luminescence, dry powder, set 6, cytotoxicity control, dose response (AID 651949); assay type: functional; conditions: HEK293
[34] = A Cell-Based Confirmatory Screen for Compounds that Inhibit VEEV, TC-83 (8).; assay type: functional
[35] = A Cell-Based Confirmatory Screen for Compounds that Inhibit VEEV, TC-83 (6).; assay type: functional
[36] = biological target: Potassium channel subfamily K member 9 (Homo sapiens, UniProt Q9NPC2); experiment: KCNK9 flux blockade, concentration-response – cell-based, FluxOR thallium flux, selectivity assay for TASK1 inhibitor project, SAR follow-up (AID 652211); assay type: functional;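 further: potency is for inhibitors of the channel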
Sequence of Potassium channel subfamily K member 9 (Q9NPC2 whole entry): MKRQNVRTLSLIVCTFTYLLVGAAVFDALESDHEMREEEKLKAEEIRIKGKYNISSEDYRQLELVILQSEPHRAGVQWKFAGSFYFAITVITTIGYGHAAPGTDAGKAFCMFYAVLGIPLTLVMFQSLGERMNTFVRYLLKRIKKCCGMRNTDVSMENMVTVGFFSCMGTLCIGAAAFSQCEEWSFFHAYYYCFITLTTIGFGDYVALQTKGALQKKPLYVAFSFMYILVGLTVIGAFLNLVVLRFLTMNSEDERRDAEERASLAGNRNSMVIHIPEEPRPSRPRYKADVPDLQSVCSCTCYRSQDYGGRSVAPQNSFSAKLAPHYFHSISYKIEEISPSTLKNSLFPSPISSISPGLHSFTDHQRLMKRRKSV

[37] = biological target: Potassium channel subfamily K member 3 (Homo sapiens, UniProt O14649); experiment: inhibition of human KCNK3 channel flux – CHO cells, FluxOR thallium flux, SAR follow-up (AID 652212); assay type: functional
Sequence of Potassium channel subfamily K member 3 (O14649 whole entry): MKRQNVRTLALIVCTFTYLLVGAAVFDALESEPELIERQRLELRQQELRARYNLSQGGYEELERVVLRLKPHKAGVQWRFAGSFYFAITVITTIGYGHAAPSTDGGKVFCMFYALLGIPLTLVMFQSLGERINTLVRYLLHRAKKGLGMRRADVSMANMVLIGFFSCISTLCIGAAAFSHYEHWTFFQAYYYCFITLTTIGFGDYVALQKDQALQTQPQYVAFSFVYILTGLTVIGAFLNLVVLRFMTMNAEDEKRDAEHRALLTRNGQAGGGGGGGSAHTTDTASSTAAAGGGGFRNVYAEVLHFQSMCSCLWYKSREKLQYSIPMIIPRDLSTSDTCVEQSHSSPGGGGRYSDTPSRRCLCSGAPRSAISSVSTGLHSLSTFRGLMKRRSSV

## CCn1c(=N)c(S(=O)(=O)c2ccccc2)cc2c(=O)n3ccccc3nc21
[1]
  EC50: > 300 µM (not active)
[2]
  EC50: > 300 µM (not active)
Cells [3]
  AC50: 1.01 µM (active)

## CCCCCC(=O)NNC(=S)NC(=O)c1ccccc1[N+](=O)[O-]
[4]
  IC50: > 122 µM (inactive)

## Cc1cc(/C=C(\C#N)C(=O)NCc2cccs2)c(C)n1-c1ccccc1F
[5]
  EC50: 0.952 µM (active)
[6]
  EC50: < 0.1 µM (active)
H4
  EC50: 61 µM (active)
[7]
  EC50: 0.225 µM (active)
[8]
  EC50: 0.472 µM (active)
[9]
  EC50: > 29.9 µM (inactive)
[10]
  IC50: 3.75 µM (active)
[11]
  IC50: > 29.9 µM (inactive)
[12]
  EC50: > 29.9 µM (inactive)

## Cn1cc(S(=O)(=O)CC(=O)N2CCc3ccccc32)c2ccccc21
[13]
  IC50: > 80 µM (inactive)
[14]
  IC50: > 122 µM (inactive)
[15]
  IC50: > 122 µM (inactive)

## COC(=O)c1c(C)n(-c2ccc(OC)cc2)c2ccc(O)cc12
[16]
  IC50: > 69.5 µM (inactive)
[17]
  IC50: > 69.5 µM (inactive)

## Cc1nc2ccccc2c2oc(C(=O)NCCCN3CCC(C)CC3)cc12
[18]
  AC50: 36.5 µM (active)
Cells [19]
  AC50: > 52 µM (inactive)

## COc1cccc(C(=O)Nc2ccc3c(c2)C(=O)N(C)C[C@H](OC)[C@@H](C)CN(CCc2ccccc2)[C@@H](C)CO3)c1
[20]
  AbsAC35: 55.16 µM
[21]
  AbsAC35: 50.41 µM
[22]
  AbsAC35: 39.75 µM
[23]
  AbsAC35: 44.38 µM

## C[C@@H]1CN([C@H](C)CO)C(=O)c2cc(NS(=O)(=O)c3ccc(F)cc3)ccc2O[C@@H](C)CCCCO[C@@H]1CN(C)Cc1ccccc1
Paired box protein Pax-8
  AC50: 7.31 µM (active)
[24]
  AC50: 21.1 µM (active)
[25]
  AC50: 2.88 µM (active)
[26]
  AC50: 39.4 µM (active)

## COc1ccc(C#Cc2ccc(C(=O)N3CCC[C@@H](O)C3)cc2F)cc1
[27]
  IC50: 0.402 µM

## COc1cc(CN2C[C@@H]3N[C@H](C2)[C@H]3c2ccc(-c3ccc(C#N)cc3)cc2)cc(OC)c1
[28]
  AC50: 24.3 µM (active)
[29]
  AC50: 1.33 µM (active)
[30]
  AC50: 8.15 µM (active)

## CC(C)(C)[S@+]([O-])N1Cc2cc(C(=O)NCc3ccccc3F)nc(-c3cccc(-c4cncnc4)c3)c2[C@@H]1CCO
[31]
  AC50: > 52 µM (inactive)
[32]
  AC50: 50.8 µM (active)

## COc1ccc(-c2nnc(SCc3ccc(Cl)cc3)o2)cc1
[33]
  AC50: > 52 µM (inactive)

## O=c1c2cc([N+](=O)[O-])ccc2nc(CN2CCNCC2)n1-c1ccsc1
[34]
  IC50: 1.74 µM (active)
[35]
  IC50: 1.74 µM (active)

## COc1ccccc1NC(=O)c1cccc(NC(=O)C2CCCCC2)c1
[36]
  IC50: 2.16 µM (active)
[37]
  IC50: 0.086 µM (active)
